# According to patent US20230146795A1, “ENHANCEMENT OF ANTI-TUMOR ACTIVITY OF SHP2 INHIBITOR PYRIMIDINONE IN COMBINATION WITH NOVEL CANCER MEDICINES IN CANCERS” (TAIHO PHARMACEUTICAL CO., LTD., priority 2020, published 2023):
# Tests used:
# Format in all cases: cell-based
# [1] = tested on: NCI-H358; assay: Anti-proliferation assay (CellTiter-Glo 2.0), combination index, NCI-H358
# Experimental: (§1) Cell lines were obtained from ATCC or Health Science Research Resources Bank.
# (§2) Each cell lines were collected by ordinary method, then suspended in indicated medium containing 10% fetal bovine serum in table 3. The number of cells seeded per well was set to 500 cells/20 μL. […] The concentration of each anti-cancer reagents set to 8 concentrations including 0 nM. After adding the medicine to the cells, the cells were further incubated at 37° C. for 3 days under 5% CO2. Cell survival rates were calculated by adding 20 μL of CellTiter-Glo(registered trademark) 2. 0 (Promega) solution to each well, incubating the cells at room temperature for 10 minutes, and then measuring the chemiluminescence intensity of each well using a plate reader (ARVO).
# (§3) A combination index (CI) value at each combined concentration of the medicines was determined.
# [2] = tested on: MKN45; assay: Anti-proliferation assay (CellTiter-Glo 2.0), combination index, MKN45
# Experimental: as §1, §2, §3
# [3] = tested on: RT4; assay: Anti-proliferation assay (CellTiter-Glo 2.0), combination index, RT4; conditions: for Description: combination effect
# Experimental: as §1, §2, §3
# [4] = Compound 1 123 + combination drug 41.2 nmol/L (1:0.3)
# [5] = Compound 1 370 + combination drug 123 nmol/L (1:0.3)
# [6] = Compound 1 1110 + combination drug 370 nmol/L (1:0.3)
# [7] = Compound 1 3330 + combination drug 1110 nmol/L (1:0.3)
# [8] = Compound 1 10000 + combination drug 3330 nmol/L (1:0.3)
# [9] = Compound 1 13.7 + combination drug 123 nmol/L (1:9)
# [10] = Compound 1 41.2 + combination drug 370 nmol/L (1:9)
# [11] = Compound 1 123 + combination drug 1110 nmol/L (1:9)
# [12] = Compound 1 4.57 + combination drug 41.2 nmol/L (1:9)
# [13] = Compound 1 370 + combination drug 3330 nmol/L (1:9)
# [14] = Compound 1 1110 + combination drug 10000 nmol/L (1:9)
# [15] = Compound 1 4.12 nmol/L + Paclitaxel 0.14 nmol/L, molar ratio 1:0.03
# [16] = Compound 1 12.3 nmol/L + Paclitaxel 0.41 nmol/L, molar ratio 1:0.03
# [17] = Compound 1 37.0 nmol/L + Paclitaxel 1.23 nmol/L, molar ratio 1:0.03
# [18] = Compound 1 111 nmol/L + Paclitaxel 3.70 nmol/L, molar ratio 1:0.03
# [19] = Compound 1 333 nmol/L + Paclitaxel 11.1 nmol/L, molar ratio 1:0.03
# [20] = Compound 1 1000 nmol/L + Paclitaxel 33.3 nmol/L, molar ratio 1:0.03
# [21] = Compound 1 12.3 nmol/L + Paclitaxel 1.46 nmol/L, molar ratio 1:0.1
# [22] = Compound 1 37.0 nmol/L + Paclitaxel 4.39 nmol/L, molar ratio 1:0.1
# [23] = Compound 1 111 nmol/L + Paclitaxel 13.2 nmol/L, molar ratio 1:0.1
# [24] = Compound 1 333 nmol/L + Paclitaxel 39.5 nmol/L, molar ratio 1:0.1
# [25] = Compound 1 1000 nmol/L + Paclitaxel 119 nmol/L, molar ratio 1:0.1
# [26] = Compound 1 4.57 nmol/L + Cisplatin 370 nmol/L, molar ratio 1:81
# [27] = Compound 1 13.7 nmol/L + Cisplatin 1110 nmol/L, molar ratio 1:81
# [28] = Compound 1 41.2 nmol/L + Cisplatin 1110 nmol/L, molar ratio 1:27
# [29] = Compound 1 123 nmol/L + Cisplatin 3330 nmol/L, molar ratio 1:27
# [30] = Compound 1 370 nmol/L + Cisplatin 10000 nmol/L, molar ratio 1:27
# [31] = Compound 1 4.57 nmol/L + SN-38 0.69 nmol/L, molar ratio 1:0.1
# [32] = Compound 1 13.7 nmol/L + SN-38 2.06 nmol/L, molar ratio 1:0.1
# [33] = Compound 1 41.2 nmol/L + SN-38 6.17 nmol/L, molar ratio 1:0.1
# [34] = Compound 1 123 nmol/L + SN-38 18.5 nmol/L, molar ratio 1:0.1
# [35] = Compound 1 370 nmol/L + SN-38 55.6 nmol/L, molar ratio 1:0.1
# [36] = Compound 1 1110 nmol/L + SN-38 167 nmol/L, molar ratio 1:0.1
# [37] = Compound 1 3330 nmol/L + SN-38 500 nmol/L, molar ratio 1:0.1
# [38] = Compound 1 41.2 nmol/L + SN-38 2.06 nmol/L, molar ratio 1:0.05
# [39] = Compound 1 123 nmol/L + SN-38 6.17 nmol/L, molar ratio 1:0.05
# [40] = Compound 1 370 nmol/L + SN-38 18.5 nmol/L, molar ratio 1:0.05
# [41] = Compound 1 1110 nmol/L + SN-38 55.6 nmol/L, molar ratio 1:0.05
compound,measurement,setting,value
O=C(c1ccc(F)c(F)c1Nc1ccc(I)cc1F)N1CC(O)([C@@H]2CCCCN2)C1 [Cobimetinib],CI,[1]; [4],0.334
same,Fa,[1]; [4],0.3595
same,CI,[1]; [5],0.172
same,Fa,[1]; [5],0.5769
same,CI,[1]; [6],0.165
same,Fa,[1]; [6],0.7439
same,CI,[1]; [7],0.258
same,Fa,[1]; [7],0.8360
same,CI,[1]; [8],0.585
same,Fa,[1]; [8],0.8699
same,CI,[2]; [9],0.806
same,Fa,[2]; [9],0.2247
same,CI,[2]; [10],0.459
same,Fa,[2]; [10],0.6457
same,CI,[2]; [11],0.616
same,Fa,[2]; [11],0.8262
same,Description (combinatory effect by CI),[2]; Compound 1:combination drug molar ratio 1:9,Synergy (0.3-0.7)
Cn1cnc2c(F)c(Nc3ccc(Br)cc3F)c(C(=O)NOCCO)cc21 [Binimetinib],CI,[1]; [12],0.883
same,Fa,[1]; [12],0.0312
same,CI,[1]; [9],0.223
same,Fa,[1]; [9],0.1821
same,CI,[1]; [10],0.196
same,Fa,[1]; [10],0.3954
same,CI,[1]; [11],0.222
same,Fa,[1]; [11],0.6241
same,CI,[1]; [13],0.349
same,Fa,[1]; [13],0.7635
same,CI,[1]; [14],0.673
same,Fa,[1]; [14],0.8387
same,CI,[2]; [9],0.630
same,Fa,[2]; [9],0.2390
same,CI,[2]; [10],0.387
same,Fa,[2]; [10],0.5003
same,CI,[2]; [11],0.212
same,Fa,[2]; [11],0.7765
same,CI,[2]; [13],0.360
same,Fa,[2]; [13],0.8408
CC(=O)O[C@H]1C(=O)[C@@]2(C)[C@H]([C@H](OC(=O)c3ccccc3)[C@]3(O)C[C@H](OC(=O)[C@H](O)[C@@H](NC(=O)c4ccccc4)c4ccccc4)C(C)=C1C3(C)C)[C@]1(OC(C)=O)CO[C@@H]1C[C@@H]2O [Paclitaxel],CI,[3]; [15],0.690
same,Fa,[3]; [15],0.1066
same,CI,[3]; [16],0.828
same,Fa,[3]; [16],0.1742
same,CI,[3]; [17],0.386
same,Fa,[3]; [17],0.4157
same,CI,[3]; [18],0.366
same,Fa,[3]; [18],0.6114
same,CI,[3]; [19],0.371
same,Fa,[3]; [19],0.7739
same,CI,[3]; [20],0.681
same,Fa,[3]; [20],0.8306
same,Description,"[3]; Compound 1 + Paclitaxel, molar ratio 1:0.03",Synergy (0.3-0.7)
same,CI,[2]; [21],0.106
same,Fa,[2]; [21],0.4372
same,CI,[2]; [22],0.222
same,Fa,[2]; [22],0.5083
same,CI,[2]; [23],0.307
same,Fa,[2]; [23],0.6577
same,CI,[2]; [24],0.409
same,Fa,[2]; [24],0.7864
same,CI,[2]; [25],0.957
same,Fa,[2]; [25],0.8179
N.N.[Cl][Pt][Cl] [Cisplatin],CI,[3]; [26],0.632
same,Fa,[3]; [26],0.0886
same,CI,[3]; [27],0.539
same,Fa,[3]; [27],0.2585
same,Description,"[3]; Compound 1 + Cisplatin, molar ratio 1:81",Synergy (0.3-0.7)
same,CI,[2]; [28],0.694
same,Fa,[2]; [28],0.2057
same,CI,[2]; [29],0.626
same,Fa,[2]; [29],0.5148
same,CI,[2]; [30],0.681
same,Fa,[2]; [30],0.8006
same,Description,"[2]; combination effect, Compound 1 + Cisplatin, molar ratio 1:27",Synergy (0.3-0.7)
SN-38,CI,[3]; [31],0.322
same,Fa,[3]; [31],0.2202
same,CI,[3]; [32],0.554
same,Fa,[3]; [32],0.2912
same,CI,[3]; [33],0.621
same,Fa,[3]; [33],0.4442
same,CI,[3]; [34],0.472
same,Fa,[3]; [34],0.6700
same,CI,[3]; [35],0.554
same,Fa,[3]; [35],0.7937
same,CI,[3]; [36],0.310
same,Fa,[3]; [36],0.9240
same,CI,[3]; [37],0.064
same,Fa,[3]; [37],0.9872
same,CI,[2]; [38],0.750
same,Fa,[2]; [38],0.3061
same,CI,[2]; [39],0.390
same,Fa,[2]; [39],0.6496
same,CI,[2]; [40],0.261
same,Fa,[2]; [40],0.8647
same,CI,[2]; [41],0.536
same,Fa,[2]; [41],0.8972
